In PubChem BioAssay (NCI) one finds TGI and GI50 data, which are given here for 35 compounds.

Common to all, as to assay: NCI-60 cell line screen, 48 h
Assay [1] relates to MDA-N.
Assay [2] relates to T-47D breast.
Assay [3] concerns NCI/ADR-RES ovarian.
The subject of assay [4] is HS 578T breast.
For assay [5], the system named is BT-549 breast.

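96-well plates; 48 h exposure; 5 concentrations. Endpoints by linear interpolation between flanking doses. Not reached: highest tested concentration assigned. GI50 marks 50% less growth. TGI: total growth inhibition.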

As for `COC12c3ccccc3-c3ccccc3C1[C@@H](C(=O)O)[C@H]2C(=O)O` (some centres not stated), the TGI in assay [1], in assay [2], in assay [3] and in assay [4] was over 10 µM in each case.

For `COc1cc(-c2cn(-c3ccc(Cl)cc3)c(=O)n2-c2ccccc2)cc(OC)c1OC`, the GI50 was over 92.1 µM in assay [5], 21.7 µM in assay [2], over 92.9 µM in assay [3] and over 50.5 µM in assay [4]. Moreover, the TGI in assay [5] is over 100 µM; in assay [2] it was over 100 µM; in assay [3], over 100 µM; in assay [4] it was 97.1 µM.

As for `O=C(/C=C/c1cccnc1)/C=C/c1cccnc1`, the GI50 was 1.73 µM in assay [5], 2.14 µM in assay [2], 4.08 µM in assay [3] and 3.44 µM in assay [4]. The TGI in assay [5] is 4.62 µM; in assay [2], 6.87 µM; in assay [3], 30.6 µM; in assay [4], 17.3 µM.

`CCN=C(N)CSS(=O)(=O)O`: the TGI in assay [5], in assay [1], in assay [2], in assay [3] and in assay [4] was over 100 µM throughout.

Turning to `O=C1/C(=C\c2ccccc2)CN(C(=O)c2ccccc2F)C/C1=C\c1ccccc1`, the GI50 was 1.86 µM in assay [5], 2.57 µM in assay [2], 3.3 µM in assay [3] and 2.48 µM in assay [4]. Besides, the TGI in assay [5] is 3.58 µM; in assay [2] it was 8.78 µM; in assay [3], 19.4 µM; in assay [4] it was 7.13 µM.

In the case of `COC(=O)Oc1nn(C(=O)OC)c(=O)c2ccccc12` (tested in a mixture with another compound), the TGI in assay [1], in assay [2], in assay [3] and in assay [4] was over 100 µM each time.

In the case of `CCOC(=O)c1c(-c2ccccc2)[nH]c2ccccc2c1=O`, the TGI in assay [1], in assay [2], in assay [3] and in assay [4] was over 100 µM in each case.

As for `C/C=C(\C)C(=O)O[C@@H]1C=CC(=O)O[C@H]1COC(=O)[C@H](C)O`, the GI50 in assay [2] is 4.64 µM; in assay [3] it was 14.6 µM; in assay [4], 5.61 µM. The TGI in assay [2] was determined as 25.6 µM; in assay [3], 56.8 µM; in assay [4], 34.6 µM.

With `Nc1nccc(C#Cc2cncnc2Nc2ccc(OCc3cccc(F)c3)c(Cl)c2)n1`, the GI50 in assay [5] was 3.15 µM; in assay [2], 3.1 µM; in assay [3], 6.6 µM; in assay [4] it was 6.32 µM. Besides, the TGI was 9.62 µM in assay [5], 8.03 µM in assay [2], over 25 µM in assay [3] and 20.5 µM in assay [4].

As for `O=S(=O)(Nc1ccc2ccc3cccc4ccc1c2c34)c1ccccc1`, the TGI in assay [5], in assay [2], in assay [3] and in assay [4] was over 100 µM in each case.

In the case of `Cn1cc(-c2nonc2-c2cn(C)c3ccc(Br)cc23)c2ccccc21`, the GI50 was 6.17 µM in assay [5] and 3.19 µM in assay [3]. The TGI in assay [5] and in assay [3] was over 100 µM each time.

As for `CN(C)c1ccc(N=C(C#N)c2nc(N)nc(N3CCOCC3)n2)cc1`, the GI50 in assay [5] was 35 µM; in assay [2], over 100 µM; in assay [3] it was 27.1 µM. Moreover, the TGI in assay [5] is over 100 µM; in assay [2], over 100 µM; in assay [3] it was 62.8 µM.

Regarding `COc1cc2c(cc1OCCCN1CCN(CCCOc3cc4c(cc3OC)C(=O)C3CCC[C@H]3C=N4)CC1)N=C[C@@H]1CCCC1C2=O` (some centres not stated), the GI50 in assay [5] is 1.7 µM; in assay [2], 15 µM; in assay [3] it was over 100 µM; in assay [4], 1.42 µM. For the same compound, the TGI was over 100 µM in assay [5], over 100 µM in assay [2], over 100 µM in assay [3] and 15.1 µM in assay [4].

Consider `c1ccc2c(c1)SCCCSCCCS2`, for which the TGI in assay [5], in assay [1], in assay [2] and in assay [3] was over 100 µM in each case.

For the compound `CC[C@]12C=CCN3CC[C@]4(C(=C(C(=O)OC)C1)Nc1ccccc14)[C@@H]32`, the GI50 is 8.71 µM in assay [5], 2.82 µM in assay [2], 6.39 µM in assay [3] and 2.99 µM in assay [4]. For the same compound, the TGI worked out at 21.6 µM in assay [5], 15.9 µM in assay [2], 58.1 µM in assay [3] and 17.2 µM in assay [4].

For the compound `O=C(Nc1ccc(Cl)cc1)C(=O)C1=C(O)c2ccccc2OC1`, the TGI in assay [5], in assay [1], in assay [2], in assay [3] and in assay [4] was over 100 µM throughout.

Regarding `c1ccc(COc2ccc(Nc3ncnc4ccc(-c5ccco5)cc34)cc2)cc1`, the GI50 in assay [5] was 6.87 µM; in assay [2] it was 4.09 µM; in assay [3] it was 7.97 µM; in assay [4], 7.71 µM. The TGI is over 25 µM in assay [5], 16.8 µM in assay [2], over 25 µM in assay [3] and over 23.5 µM in assay [4].

On to `C#CCSc1nnnn1-c1ccc(Br)c(C)c1`, for which the GI50 in assay [5] was 48.7 µM; in assay [2], 21 µM; in assay [3] it was 17.4 µM; in assay [4], 2.86 µM. For the same compound, the TGI is over 100 µM in assay [5], over 100 µM in assay [2], 72.7 µM in assay [3] and 26.9 µM in assay [4].

As to `CCOC(=O)/C(=C/c1c(-c2ccccc2)[nH]c2ccccc12)C(=O)c1ccc(Cl)cc1`, the GI50 in assay [5] was 8.82 µM; in assay [2] it was 2.27 µM; in assay [3], 2.69 µM; in assay [4], 3.73 µM. The TGI in assay [5] was over 100 µM; in assay [2], 8.24 µM; in assay [3] it was over 100 µM; in assay [4] it was 57.5 µM.

As for `COc1cc2nc(-c3ccc(Cl)cc3)cc(OCCCN3CCC(O)CC3)c2cc1OC`, the GI50 in assay [5] is 2.79 µM; in assay [2] it was 2.26 µM; in assay [3], 0.925 µM; in assay [4], 1.91 µM. Besides, the TGI was 13.3 µM in assay [5], 12 µM in assay [2], 14.8 µM in assay [3] and 6.65 µM in assay [4].

In the case of `C[C@@H](Oc1cc(-n2cnc3ccc(OCC4CCN(C)CC4)cc32)sc1C(N)=O)c1ccccc1C(F)(F)F`, the GI50 in assay [5] was 1.37 µM; in assay [2], 2.69 µM; in assay [3] it was 0.477 µM; in assay [4] it was 0.631 µM. The TGI came to 4.75 µM in assay [5], 6.03 µM in assay [2], 3.87 µM in assay [3] and 5.02 µM in assay [4].

Regarding `COc1cc2c(c(Br)c1N)-c1cc(Br)c(N)cc1C2=O`, the GI50 in assay [5] is over 24.8 µM; in assay [2] it was 0.307 µM; in assay [3], 5.31 µM; in assay [4] it was 3.02 µM. For the same compound, the TGI in assay [5], in assay [2], in assay [3] and in assay [4] was over 100 µM in each case.

Consider `COc1ccc(C2=NN(c3ccc(S(N)(=O)=O)cc3)C(c3ccc(Cl)cc3)C2)c(O)c1` (configuration not stated), for which the GI50 in assay [5] was 4.07 µM; in assay [2], 2.4 µM; in assay [3] it was 3.98 µM; in assay [4] it was 3.93 µM. Besides, the TGI in assay [5] is 13.6 µM; in assay [2], 7.81 µM; in assay [3], 21.1 µM; in assay [4], 19.5 µM.

With `Cn1cccc1C1CC(=O)N(CCC[Se]C#N)C1=O` (configuration not stated), the GI50 was 2.78 µM in assay [2], 2.69 µM in assay [3] and 2.44 µM in assay [4]. Besides, the TGI is 12.8 µM in assay [2], 7.85 µM in assay [3] and 7.33 µM in assay [4].

For the compound `c1ccc(CNc2nc(Nc3ccc(-c4nc5ccccc5[nH]4)cc3)c3cn[nH]c3n2)cc1`, the GI50 in assay [5] was 2.03 µM; in assay [2], 1.63 µM; in assay [3], 2.22 µM; in assay [4], 2.45 µM. The TGI stood at 5.27 µM in assay [5], 5.46 µM in assay [2], 5.99 µM in assay [3] and 8.22 µM in assay [4].

As for `Cc1ccc2c(c1)/C(=N\N=C/c1cn(C(C)C)c3ccccc13)C(=O)N2`, the GI50 in assay [5] was 3.58 µM; in assay [2] it was 0.953 µM; in assay [3], 73 µM; in assay [4] it was 10.6 µM. Also, the TGI in assay [5], in assay [2], in assay [3] and in assay [4] was over 100 µM each time.

`C/C(=N\NC(=S)Nc1ccccc1)c1ccccn1`: the GI50 in assay [5] is 1.87 µM; in assay [2], 0.0168 µM; in assay [3] it was 0.0469 µM; in assay [4], 0.0857 µM. The TGI in assay [5] was determined as 13.9 µM; in assay [2], 6.41 µM; in assay [3] it was 4.58 µM; in assay [4] it was 38.4 µM.

`COc1ccc2c(c1)C(=O)/C(=C/c1ccc(OCC(=O)c3ccc(Cl)cc3)cc1)O2`: the GI50 in assay [5] was 18.4 µM; in assay [2], 10.5 µM; in assay [3], 16.3 µM; in assay [4], 22.1 µM. Further, the TGI in assay [5] stood at 59.1 µM; in assay [2], 35.7 µM; in assay [3], 41.8 µM; in assay [4] it was 84.6 µM.

As for `Cn1cc(-c2csc(-c3cn(C)c4ncccc34)n2)c2ccccc21`, the GI50 is 0.409 µM in assay [5], 0.135 µM in assay [3] and 0.451 µM in assay [4]. The TGI in assay [5] turned out to be 26.2 µM; in assay [3], 3.47 µM; in assay [4], 18.8 µM.

As to `CC1(C)CCC(CN2CCN(c3ccc(C(=O)NS(=O)(=O)c4ccc(NCC5CCOCC5)c([N+](=O)[O-])c4)c(Oc4cnc5[nH]ccc5c4)c3)CC2)=C(c2ccc(Cl)cc2)C1`, the GI50 in assay [5] is 3.13 µM; in assay [2] it was 3.25 µM; in assay [3] it was 5 µM; in assay [4] it was 2.94 µM. Further, the TGI in assay [5] was 8.66 µM; in assay [2] it was 18.9 µM; in assay [3] it was 27.3 µM; in assay [4], 12.2 µM.

Take `CCN(CC)c1ccc(/C=C/C2=[N+](C)c3ccccc3C2(C)C)cc1`: the GI50 in assay [5] is 0.226 µM; in assay [2], 0.205 µM; in assay [3], 13.9 µM; in assay [4], 0.152 µM. Also, the TGI in assay [5] is 1.96 µM; in assay [2], 13.8 µM; in assay [3] it was over 100 µM; in assay [4], 20.9 µM.

On to `C=C(CNCCc1ccc(O)cc1)[C@@H]1CC[C@]2(CO)CC[C@]3(C)[C@H](CC[C@@H]4[C@@]5(C)CCC(NCCO)C(C)(C)[C@@H]5CC[C@]43C)[C@@H]12` (some centres not stated), for which the GI50 in assay [5] was 1.5 µM; in assay [2] it was 1.79 µM; in assay [3] it was 2.09 µM; in assay [4], 1.69 µM. Moreover, the TGI stood at 3.15 µM in assay [5], 3.96 µM in assay [2], 4.88 µM in assay [3] and 3.85 µM in assay [4].

Regarding `CCN1C(=O)N(CC)C2C1NN=c1s/c(=C\c3ccc([N+](=O)[O-])cc3)c(=O)n12` (configuration not stated), the GI50 in assay [5] was 1.55 µM; in assay [2] it was 0.575 µM; in assay [3] it was 0.396 µM; in assay [4], 0.328 µM. Also, the TGI was 16.5 µM in assay [5], over 100 µM in assay [2], over 45.2 µM in assay [3] and over 72.5 µM in assay [4].

Regarding `CC1OC(OC2C(OC3CCC4(C)C(CCC5(C)C4CC=C4C6CC(C)(C)CCC6(CO)C(O)CC45C)C3(C)C)OC(C(=O)O)C(OC3OC(COC4OC(CO)C(O)C(O)C4O)C(O)C(O)C3O)C2O)C(O)C(O)C1O` (configuration not stated), the GI50 in assay [5] is 1.15 µM; in assay [2], 12.3 µM; in assay [3], 11.5 µM; in assay [4], 13.1 µM. In addition, the TGI is 2.49 µM in assay [5], 27.8 µM in assay [2], 23.6 µM in assay [3] and 34.6 µM in assay [4].

As for `Cc1nc(N=C(N)N)nc2ccc3ccccc3c12`, the GI50 was 2.67 µM in assay [5], 1.12 µM in assay [2], 11.4 µM in assay [3] and 0.606 µM in assay [4]. The TGI in assay [5] turned out to be 7.96 µM; in assay [2], 7.24 µM; in assay [3], 36 µM; in assay [4] it was 3.16 µM.
